According to patent publication US20240024273A1, “TOPICAL ADMINISTRATION OF 2-(DIETHYLAMINO)ETHYL 2-(4-ISOBUTYLPHENYL)PROPRIONATE FOR TREATMENT OF DISEASES” (TECHFIELDS PHARMA CO., LTD., priority 2020, published 2024):

Key:
Format in all cases: in vivo, human
[1] = test system: osteoarthritis of the knee; assay: Second Phase 2 study: Subject's Global Assessment of Disease Status (SGADS)
From the text: (§1) 4.9.2. Secondary Efficacy Endpoints: • 1. Change from Baseline in the WOMAC (VAS) pain subscale score for the target knee at 2, 8, and 12 weeks of treatment; • 2. Change from Baseline in the WOMAC (VAS) stiffness subscale scores for the target knee and WOMAC (VAS) functional ability subscale scores at 2, 4, 8, and 12 weeks of treatment; • 3. Change from Baseline in the overall WOMAC (VAS) score at 2, 4, 8, and 12 weeks of treatment; • 4. Subject's global assessment of disease status of the target knee at 2, 4, 8, and 12 weeks of treatment; • 5. Subject's global assessment of response to therapy of the target knee at 2, 4, 8, and 12 weeks of treatment; • 6. Amount of rescue medication (acetaminophen) consumed per day for target knee pain.

[2] = test system: osteoarthritis of the knee; assay: Second Phase 2 study: Subject's pain Assessment Scores (SPA)
Description: Subjects will record the following information in a Daily Diary starting at Screening: the amount of knee pain in the target knee while walking during the preceding 24 hours (using a 100 mm visual analog scale [VAS]), the times and number of sprays for each administration of study medication, the times when the subject washes his/her knees and/or takes a shower, the number of tablets of rescue medication taken that day and the times taken, the reason for taking the rescue medication (e.g., knee pain, headache, low back pain), any other concomitant medications taken that day, and any AEs occurring that day.

[3] = test system: osteoarthritis of the knee; assay: Second Phase 2 study: WOMAC (VAS) pain subscale score
From the text: This is a Phase 2, multicenter, randomized, double blind (within dose), Ibuprofen-placebo controlled, parallel group, dose range finding study to evaluate the efficacy, safety, and PK of 2-(diethylamino)ethyl 2-(4-isobutylphenyl)propionate spray in adult subjects with clinically symptomatic OA of the knee. For subjects with bilateral knee pain, both knees will be treated, but the most symptomatic knee (ie, the most painful knee as measured by the Western Ontario and McMaster University Osteoarthritis Index [WOMAC® 3.1] pain subscale score at Screening) will be designated as the target knee for efficacy analyses. For subjects with unilateral knee pain, only the symptomatic (target) knee will be treated.
The VAS version of the WOMAC will be used for the Primary and Secondary Efficacy Endpoints. Efficacy endpoints will be assessed at Screening and Baseline (Day 1) and at the Week 2, Week 4, Week 8, and Week 12/EOS visits.
The Primary Efficacy Endpoint is the change from Baseline in the WOMAC (VAS) pain subscale score for the target knee at […] of treatment.
as §1
The Primary Efficacy Endpoint is change from Baseline in the WOMAC (VAS) pain subscale score for the target knee at 4 weeks of treatment, and will be analyzed using an analysis of covariance (ANCOVA). Treatment will be included as a fixed class effect and WOMAC Baseline pain subscale score as covariates. The primary comparisons of interest will be the difference between active Group A (4.375 mg 2-(diethylamino)ethyl 2-(4-isobutylphenyl)propionate/knee) and combined placebo, active Group B (8.75 mg 2-(diethylamino)ethyl 2-(4-isobutylphenyl)propionate/knee) and combined placebo, and active Group C (17.5 mg 2-(diethylamino)ethyl 2-(4-isobutylphenyl)propionate/knee) and combined placebo.

[4] = test system: osteoarthritis of the knee; assay: Second Phase 2 study: Subject Global Impression of Change (SGIC); details: Week 12
From the text: as §1

[5] = Baseline, oral, 3 × 400 mg (n = 20), first 130 subjects
[6] = Week 12, oral, 3 × 400 mg (n = 20), first 130 subjects
[7] = all subjects, Oral Ibuprofen 3 × 400 mg, n = 48, Week 12
[8] = all subjects, Oral Ibuprofen 3 × 400 mg, n = 48 vs. Placebo n = 48
[9] = oral 3×400 mg, first 130 subjects
[10] = oral, 3 x 400 mg (n = 20), first 130 subjects
[11] = all subjects, Oral Ibuprofen 3 × 400 mg, n = 48

## CC(C)Cc1ccc(C(C)C(=O)O)cc1 (stereo not shown) [Ibuprofen, 2-(4-isobutylphenyl)propionic acid, reference compound]
[1]; [5]
  Subject’s Global Assessment of Disease Status Scores, Baseline (LS Mean): 75.2 mm
[1]; [6]
  Subject’s Global Assessment of Disease Status Scores, % of improvement from baseline: −38.4%
  Subject’s Global Assessment of Disease Status Scores, % of improvement from placebo: −2.0%
  Subject’s Global Assessment of Disease Status Scores, Changes from Baseline (LS Mean): −28.9 mm
  Subject’s Global Assessment of Disease Status Scores, Different from placebo (LS Mean): −4.4 mm
  Subject’s Global Assessment of Disease Status Scores, Week 12 (LS Mean): 46.3 mm
[1]; [7]
  Subject's Global Assessment of Disease Status Scores, % of improvement from Placebo: −0.7%
  Subject's Global Assessment of Disease Status Scores, % of improvement from baseline: −46.6%
  Subject's Global Assessment of Disease Status Scores, Changes from Baseline (LS Mean): −33.3 mm
  Subject's Global Assessment of Disease Status Scores, Week 12 (LS Mean): 38.1 mm
[1]; [8]
  SGADS, difference vs. Placebo: −2.9 mm
[1]; [9]
  SGADS, difference from placebo: −4.2 mm
[2]; [5]
  Subject’s pain Assessment Scores, Baseline (LS Mean): 71.2 mm
[2]; [6]
  Subject’s pain Assessment Scores, % of improvement from baseline: −36.2%
  Subject’s pain Assessment Scores, % of improvement from placebo: −7.0%
  Subject’s pain Assessment Scores, Changes from Baseline (LS Mean): −25.8 mm
  Subject’s pain Assessment Scores, Different from placebo (LS Mean): −6.9 mm
  Subject’s pain Assessment Scores, Week 12 (LS Mean): 45.4 mm
[2]; [7]
  Subject's pain Assessment Scores, % of improvement from Placebo: −8.4%
  Subject's pain Assessment Scores, % of improvement from baseline: −45.4%
  Subject's pain Assessment Scores, Changes from Baseline (LS Mean): −30.5 mm
  Subject's pain Assessment Scores, Week 12 (LS Mean): 36.6 mm
[2]; [8]
  SPA, difference vs. Placebo: −6.4 mm
[2]; [9]
  SPA, difference from placebo: 6.1 mm
[3]; [5]
  WOMAC Pain Subscale Scores, Baseline (LS Mean): 67.0 mm
[3]; [6]
  WOMAC Pain Subscale Scores, % of improvement from Placebo: 0.9%
  WOMAC Pain Subscale Scores, % of improvement from baseline: −32.2%
  WOMAC Pain Subscale Scores, Changes from Baseline (LS Mean): −21.6 mm
  WOMAC Pain Subscale Scores, Different from placebo (LS Mean): −0.5 mm
  WOMAC Pain Subscale Scores, Week 12 (LS Mean): 45.4 mm
[3]; [7]
  WOMAC Pain Subscale Scores, % of improvement from Placebo: −4.5%
  WOMAC Pain Subscale Scores, % of improvement from baseline: −41.2%
  WOMAC Pain Subscale Scores, Changes from Baseline (LS Mean): −25.4 mm
  WOMAC Pain Subscale Scores, Week 12 (LS Mean): 36.3 mm
[3]; [8]
  WOMAC Pain, difference vs. Placebo: −2.8 mm
[3]; [9]
  WOMAC pain, difference from placebo: −0.5 mm
[4]; [10]
  SGIC: Good and Very good: 55.0%
  SGIC: Poor and Very Poor: 10.0%
  SGIC: fair: 35.0%
[4]; [11]
  SGIC, Good and Very good: 47.9%
  SGIC, Poor and Very Poor: 8.3%
  SGIC, fair: 43.8%
[4]; oral 3×400 mg/day, first 130 subjects
  Subject's satisfaction rate (SGIC good and very good): 55%
